{
  "source": "patent US8715155B2",
  "about": "“Embryo development and survival” (University of Tennessee Research Foundation, priority 2005, dated 2014)",
  "key": {"[1]": {"test_system": "Pre-compacted 16- to 32-cell stage bovine embryos", "test": "Dose response study of AL-8810 on embryo development", "format": "cell-based", "conditions": "96 h", "description": "Incubation conditions are 5.5% CO2, 7% O2, and 87.5% N2 at 38.5° C. The four groups are as follows: (1) KSOM-PVA+AL-8810 at 1000 nM, n=93 (High AL-8810 group); (2) KSOM-PVA+AL-8810 at 500 nM, n=95 (Medium AL-8810 group); (3) KSOM-PVA+AL-8810 at 250 nM, n=93 (Low AL-8810 group); and (4) KSOM-PVA with an equivalent volume of DMSO (dimethylsulfoxide) as used for the first three groups, n=95 (Control group)."}, "[2]": {"test_system": "developmentally challenged bovine oocytes", "test": "Maturation of developmentally challenged oocytes with a PGF2α antagonist, then fertilization", "format": "cell-based", "description": "In a second study, bovine oocytes were obtained from ovaries of slaughtered cows. Oocytes that were developmentally challenged (development of oocyte to blastocyst less than 20%) were included in the study. The oocytes were matured for 24 hours in a standard maturation medium that either contained the PGF2α antagonist AL-8810 (treatment group) or that lacked the PGF2α antagonist (control group) and were then fertilized. Oocytes were observed on day 3 for the presence of cleavage and on day 9 for the presence of blastocyst development. The percentage of oocytes in that underwent cleavage and that developed into blastocysts was determined."}, "[3]": {"test_system": "embryos placed in recipient animals", "test": "Pre-treatment of embryos in recovery and/or freezing/transfer media before embryo transfer", "format": "in vivo, cattle", "description": "Approximately 100 embryo recoveries are performed on day 7 after estrus in beef and dairy cows (lactating and dry). Cows are superovulated (Folltropin) and embryos recovered, evaluated, and frozen (1.5 M Ethylene Glycol; EG) as previously reported (Schrick et al., Biol. Reprod. 49:617-621 (1993)). Half of the embryo recoveries occur utilizing 1 L of each of the following alternative media preparations: 1) Embryo recovery (flush) media (CON, n=50 recoveries; Dulbecco's PBS+1% FCS; GibcoBRL, Cat.#21300-025; Grand Island, N.Y.) or 2) Embryo recovery (flush) media+AL-8810 (TRT, n=50 recoveries; 430 nM of AL-8810).\nFollowing filtering, embryo dishes are searched, embryos removed (placed in Vigro), and evaluated for quality and development (IETS guidelines). […]\nOver a two year period, recipient animals (dairy and beef cows and heifers; n=500) have estrus synchronized utilizing GnRH/CIDR/Estrumate protocol consisting of administration of 100 ug GnRH (Cysterolin; Merial) and CIDR (intravaginal progesterone releasing device; Pfizer) insertion on day 0, CIDR removal and injection of 2 mL Estrumate (Schering-Plough Animal Health) on day 7, and estrous detection (twice daily) from days 8 through 12. […] Embryos used for ET are thawed (10 sec air thaw; 30 sec in 25° C. water bath), straw labeling (embryo ID) information recorded, and recipient ID collected. […]"}, "[4]": {"test_system": "Pre-compacted 16- to 32-cell stage bovine embryos", "conditions": "1000 nM AL-8810 + 1 ng/ml PGF, 48 h culture, assessed day 8", "protocol": "Pre-compacted 16- to 32-cell stage bovine embryos (day 4 post fertilization) are washed in KSOM-PVA and divided into four groups, each of which is cultured for 48 hours in KSOM-PVA containing one of the following: (1) 1000 nM AL-8810, n=95 (AL-8810 group); (2) 1 ng/ml PGF, n=91 (PGF group); (3) 1000 nM AL-8810+1 ng/ml PGF, n=90 (AL-8810+PGF group); or (4) KSOM-PVA without AL-8810 or PGF, n=84 (Control group).\nFollowing the 48 hour culture, embryos from each group are placed in HEPES-TALP and embryonic development is assessed by a technician who is uninformed of the treatments of the embryos in each group. Embryos from each treatment group are washed in KSOM-PVA and transferred to a 4-well plate with KSOM-PVA for further culture until day 8 post fertilization, when embryonic development is again assessed."}, "[5]": {"test_system": "bovine cumulus-oocyte-complexes", "test": "Maturation of heat-stressed cumulus-oocyte-complexes with a PGF2α antagonist", "format": "cell-based", "conditions": "COC matured at 41.0° C. for first 12 h, AL-8810 at 250, 400 or 1000 nM; FIG. 1", "description": "In a first study, bovine cumulus-oocyte-complexes were divided into three groups. Each of the three groups were matured for 24 hours under heat-stress conditions at 41.0° C. for 12 hours, followed by 38.5° C. for the remaining 12 hours. A first group, referred to as the development control group, was matured utilizing a standard maturation medium. A second group, referred to as the diluent control group, was matured under the same conditions utilizing the same standard maturation medium to which was added a diluent DMSO (dimethyl sulfoxide). A third group, referred to as the treatment group, was matured under the same conditions utilizing the same standard maturation medium to which was added the PGF2α antagonist AL-8810 at a concentration of 250, 400, or 1000 nM. To prepare the diluent control, DMSO was added to the OMM to yield the same concentration as would be contained in the PGF2α antagonist dose being tested (0.0025, 0.004 and 0.01% v/v final concentration for the 250, 400 and 1000 nM doses, respectively). The generalized linear mixed models (GLIMMIX) procedure of SAS version 9.1 (SAS Institute; Cary, N.C.; 2003) was used to perform analyses. Data are presented as least square means±the standard error of the mean. […]"}, "[6]": {"conditions": "oocytes matured 24 h with AL-8810, of those that cleaved"}},
  "data": [
    {"molecule": "O=C(O)CCC/C=C\\CC1C(O)CC(F)C1/C=C/C(O)C1Cc2ccccc2C1", "note": "(stereo not drawn) [AL-8810, 11β-fluoro-15-epi-15-indanyl-tetranor PGF2α]", "values": [
      {"measurement": "early embryonic development of pre-compacted embryos", "setting": "[1]; AL-8810 at 250, 500 and 1000 nM, vs control group", "result": "does not decrease or increase early embryonic development"},
      {"measurement": "embryonic development", "setting": "[1]; High AL-8810 group (1000 nM), vs 49.9+/-3.9% control, p<0.05", "result": 60.3, "unit": "%+/−3.9"},
      {"measurement": "deleterious or toxic effect on oocytes or developing embryos (stage and development of blastocysts)", "setting": "[2]; oocytes matured 24 h with AL-8810", "result": "does not exert a deleterious or toxic effect"},
      {"measurement": "Cleaved (%)", "setting": "[2]; oocytes matured 24 h with AL-8810, observed day 3", "result": 60.4, "unit": "%"},
      {"measurement": "Blastocyst/PZ (%)", "setting": "[2]; oocytes matured 24 h with AL-8810, observed day 9", "result": 17.7, "unit": "%"},
      {"measurement": "2-cell (%)", "setting": "[2]; [6]", "result": 7.2, "unit": "%"},
      {"measurement": "4-cell (%)", "setting": "[2]; [6]", "result": 15.2, "unit": "%"},
      {"measurement": "8 to 16-cell (%)", "setting": "[2]; [6]", "result": 76.7, "unit": "%"},
      {"measurement": "pregnancy rates", "setting": "[3]; AL-8810 (430 nM in flush media) in embryo recovery and/or freezing/transfer media", "result": "increases pregnancy rates"},
      {"measurement": "abnormalities in calves resulting from the pregnancies", "setting": "[3]; embryos pre-treated with AL-8810 in media", "result": "No abnormalities are observed in the calves"},
      {"measurement": "embryonic development in the presence of PGF", "setting": "[4]", "result": "decreases the negative effects of PGF on embryonic development"},
      {"measurement": "blastocyst development after heat stress", "setting": "[5]", "result": "the effect of heat stress to reduce blastocyst development was no longer observed"}
    ]}
  ]
}
